Common to all, as to assay type: physicochemical
The nature of series [1]: Hydrogel formation / minimum gelation concentration. From the text: To prepare the peptide hydrogels, the lyophilized peptide powders were first dissolved in milliQ water and mixed by vortexing for 30 seconds to obtain a homogenous solution. The gelation occurred between minutes to overnight, depending on the peptide concentration. Gelation can be facilitated by sonication or heating.

Series [2] is described as follows: Hydrogel rigidity, storage modulus (G′).
Series [3] in a line: Formation of aggregates and fibrous structures.

In the case of Ac-LIVAGK-NH2, the “minimum gelation concentration (forms hydrogels at)” value in series [1] (in 10 mM NaOH) is 10 mg/mL; in series [1] (in PBS) it was 7.5 mg/mL; in series [1] (in saline) it was 12 mg/mL; in series [1] (in water), 20 mg/mL. Further, the “storage modulus (G′)” value in series [2] (20 mg/mL hydrogel in normal saline (NaCl)) is reported as 10 kPa; in series [2] (20 mg/mL hydrogel in phosphate buffered saline (PBS)), 40 kPa; in series [2] (20 mg/mL hydrogel in water), 1 kPa; in series [2] (20 mg/mL hydrogel, addition of sodium hydroxide (NaOH)) it was 80 kPa.
For the substance Ac-ILVAG, the hydrogel formation result in series [1] (at 5 mg/mL) was “hydrogel”.
For Ac-LD6 (L), in series [3], the “concentration at which formation of aggregates is observed” value is 100 µg/mL and the “concentration at which peptide monomers align to form fibrous structures” value is 1000 µg/mL.

Values taken from patent publication US20170002041A1, “NOVEL ULTRASHORT HYDROPHOBIC PEPTIDES THAT SELF-ASSEMBLE INTO NANOFIBROUS HYDROGELS AND THEIR USES” (AGENCY FOR SCIENCE, TECHNOLOGY AND RESEARCH, priority 2013, published 2017).
